Experimental data published in publication PMC12679585, “Design, synthesis, and characterization of novel 5-ethylsulfonyl-indazole-3-carboxamides as dual VEGFR-2 and EGFR inhibitors: apoptotic antiproliferative and immunomodulatory evaluations” (RSC Advances, 2025).

Columns and labels:
[1] = Cell viability assay (MTT) on normal mammary epithelial cells; format: cell-based; conditions: human, MCF-10A normal mammary gland epithelial cells, four days
Protocol: This test assesses the safety of new compounds 8a–l on normal cell lines. The efficacy of 8a–l was tested on the normal human mammary gland epithelial cell line MCF-10A. MCF-10A cells were incubated with 50 µM of each tested compound for four days. Cell viability was assessed using the MTT assay.[11,48] Appendix A has extra experimental details.
This assay evaluates the impact of novel compounds 8a–l on normal cell lines to determine their safety, an essential consideration in drug discovery. The efficacy of the examined compounds was evaluated utilizing the normal human mammary gland epithelial cell line MCF-10A. […]
4.2. Biological evaluation
4.2.1 Cell Viability assay (MTT assay)
(§1) MTT assay was performed to investigate the effect of the synthesized compounds on mammary epithelial cells (MCF-10A). The cells were propagated in medium consisting of Ham's F-12 medium/ Dulbecco's modified Eagle's medium (DMEM) (1:1) supplemented with 10% foetal calf serum (GIBCO, UK), 2 mM glutamine, insulin (10 μg/mL), hydrocortisone (500 ng/mL) and epidermal growth factor (20 ng/mL). Trypsin ethylenediamine tetra acetic acid (EDTA) was used to passage the cells after every 2-3 days. 96-well flat-bottomed cell culture plates were used to seed the cells at a density of 10^4 cells mL-1. The medium was aspirated from all the wells of culture plates after 24 h followed by the addition of synthesized compounds (in 200 μL medium to yield a final concentration of 0.1% (v/v) dimethyl sulfoxide) into individual wells of the plates.
(§2) Four wells were designated to a single compound. The plates were allowed to incubate at 37°C for 96 h. Afterwards, the medium was aspirated and 3-[4,5-dimethylthiazol-2-yl]-2,5-diphenyltetrazolium bromide (MTT) (0.4 mg/mL) in medium was added to each well and subsequently incubated for 3 h. The medium was aspirated and 150 μL dimethyl sulfoxide (DMSO) was added to each well. The plates were vortexed followed by the measurement of absorbance at 540 nm on a microplate reader. […]

HCT-116 = assay: Antiproliferative assay (MTT); format: cell-based; conditions: Homo sapiens, HCT-116 colorectal, mean of three experiments ± SD
Text: (§3) The MTT assay[53,54] was employed to evaluate the antiproliferative efficacy of new compounds 8a–l against two human cancer cell lines: MCF-7 (breast) and HCT-116 (colorectal carcinoma). Erlotinib was employed as the benchmark. Check Appendix A for additional experimental information.
(§4) The MTT assay[53,54] was used to evaluate the antiproliferative properties of novel compounds 8a–l against two human cancer cell lines: MCF-7 (breast cancer) and HCT-116 (colorectal carcinoma). Erlotinib was utilized as the reference. […] The provided values represent the means of three experiments ± standard deviation (SD). […]
as §1, with “of” for “MTT assay was performed to investigate the effect of the synthesized compounds on mammary epithelial cells (MCF-10A). The cells were propagated in medium consisting of”
as §2
(§5) All cell lines […]
(§6) were obtained from ATCC (American Type Cell Culture). […]
(§7) μM), benzamidine HCl (16 μg/mL), NaCl (10 mM),leupeptin (10 μg/mL) and pepstatin (10 μg/mL) at 0°C for 20 min at pH 7.4, followed by centrifugation for 20 min. To eliminate the nonspecifically bound material, a Ni-NTA super flow packed column was (1 picture or pasted object on this page, not shown here)

MCF-7 = assay: Antiproliferative assay (MTT); format: cell-based; conditions: Homo sapiens, MCF7, MCF-7 breast, mean of three experiments ± SD
Text: as §3, §4
as §1, with “of” for “MTT assay was performed to investigate the effect of the synthesized compounds on mammary epithelial cells (MCF-10A). The cells were propagated in medium consisting of”
as §2, §5, §6, §7

HCT-116 and MCF-7 = assay: Antiproliferative assay, average over the two cell lines; format: cell-based; conditions: Homo sapiens; average of HCT-116 and MCF-7; read-out: Average IC50 (GI50)
Text: as §3
The MTT assay[53,54] was used to evaluate the antiproliferative properties of novel compounds 8a–l against two human cancer cell lines: MCF-7 (breast cancer) and HCT-116 (colorectal carcinoma). Erlotinib was utilized as the reference. […] The provided values represent the means of three experiments ± standard deviation (SD).

EGFR = EGFR (Homo sapiens, UniProt P00533); set-up: 645–1186; His6 (N); made in house; host or cells: Sf-9 insect cells (baculovirus; vectors pBlueBacHis2B and pFASTBacHTc); method as in PMID 35667253; conditions: cited from earlier work
EGFR, sequence (P00533 669-1210): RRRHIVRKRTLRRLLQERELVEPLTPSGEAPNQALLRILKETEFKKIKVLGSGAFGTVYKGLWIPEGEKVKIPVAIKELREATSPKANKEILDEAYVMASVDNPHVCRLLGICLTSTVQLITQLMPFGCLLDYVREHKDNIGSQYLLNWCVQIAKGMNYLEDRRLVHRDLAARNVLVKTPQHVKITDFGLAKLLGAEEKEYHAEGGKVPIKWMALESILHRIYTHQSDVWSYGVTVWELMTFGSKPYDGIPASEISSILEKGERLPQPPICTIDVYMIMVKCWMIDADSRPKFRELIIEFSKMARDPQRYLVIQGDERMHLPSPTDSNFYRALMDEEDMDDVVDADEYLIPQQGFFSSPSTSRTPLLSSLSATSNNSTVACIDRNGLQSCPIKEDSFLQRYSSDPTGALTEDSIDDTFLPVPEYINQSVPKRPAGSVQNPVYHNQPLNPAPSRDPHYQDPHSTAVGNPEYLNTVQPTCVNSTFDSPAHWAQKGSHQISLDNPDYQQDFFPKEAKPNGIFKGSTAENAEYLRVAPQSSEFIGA

wild-type EGFR = test system: wild-type EGFR; set-up: method as in PMID 26275028; conditions: cited from earlier work
VEGFR-2 kinase = target: VEGFR-2 kinase; set-up: method as in PMID 24456902; conditions: cited from earlier work
IL-6 = IL-6 level by qRT-PCR in HCT-116 cells; conditions: HCT-116 cells, 24 hours, at IC50 against HCT-116 (8g 24 nM, 8h 23 nM), qRT-PCR
Protocol: (§8) The reference molecule was dexamethasone, a drug that uniformly regulates the immune system.
TNF-α and IL6 a determination
(§9) determined using of q RT-PCR technique. By using q RTPCR (reference), the amount
(§10) treated HCT-116 cells was measured (at the IC50 concentrations). Total RNA was
(§11) accordance with the manufacturer's instructions (RNeasy mini kit, Qiagen, Germany).
(§12) Following RNA extraction, the Revert Aid First Strand cDNA Synthesis kit (Thermo
(§13) Scientific, USA) was used to create cDNA. The Rotor-Gene Q real-time PCR thermal
(§14) cycler was used to amplify target cDNA for apoptosis markers and GAPDH [as a
(§15) normalization (housekeeping) gene] using one step RT-PCR SYBR® Green kit Master
(§16) Mix (Bio-Rad Laboratories, USA). Two microliters of cDNA were combined with one
(§17) microliter of forward primer, one microliter of reverse primer, ten microliters of master
(§18) mixture, and twenty microliters of nuclease-free water to complete the reaction volume.
(§19) Every experiment was carried out three times.
(§20) Quantitative Real Time Reverse-Transcriptase PCR (qRT-PCR) primer sequences
TNF-α : R 5'- [sequence] -3'.
IL6 : R 5'- [sequence] -3
GAPDH : R 5’- [sequence]-3’

TNF-α = TNF-α level by qRT-PCR in HCT-116 cells; conditions: HCT-116 cells, 24 hours, at IC50 against HCT-116 (8g 24 nM, 8h 23 nM), qRT-PCR
Protocol: as §8
TNF-α and IL6 a determination
as §9, §10, §11, §12, §13, §14, §15, §16, §17, §18, §19, §20
TNF-α : R 5'- [sequence] -3'.
IL6 : R 5'- [sequence] -3
GAPDH : R 5’- [sequence]-3’

Caspase-3 = Caspase-3 activation assay in HCT-116 cells; format: cell-based, human
Protocol: Appendix A gives more details.
Additionally, activating caspases is essential for both initiating and terminating the apoptotic process.[64] Caspase-3 is an essential enzyme that cleaves several proteins within cells, leading to apoptotic cell death.[65] […]
be read immediately after the Stop Solution is added or within one hour if the microwell strips are stored at 2 - 8°C in the dark. Read the absorbance of each microwell on a spectrophotometer using 450 nm as the primary wavelength.
4.2.5. Caspase-3 activation assay
Allow all reagents to reach room temperature before use. Gently mix all liquid reagents prior to use. Determine the number of 8-well strips needed for the assay. Insert these in the frame(s) for current use. Add 100 μl of the Standard Diluent Buffer to the zero standard wells. Well(s) reserved for chromogen blank should be left empty. Add 100 μl of standards and controls or diluted samples to the appropriate microtiter wells. The sample dilution chosen should be optimized for each experimental system. Tap gently on side of plate to mix. Cover wells with plate cover and incubate for 2 hours at room temperature. Thoroughly aspirate or decant solution from wells and discard the liquid, Wash wells 4 times. Pipette 100 μl of Caspase-3 (Active) Detection Antibody solution into each well except the chromogen blank(s). Tap gently on the side of the plate to mix. Cover plate with plate cover and incubate for 1 hour at room temperature.
Thoroughly aspirate or decant solution from wells and discard the liquid, Wash wells 4 times. Add 100 μl Anti-Rabbit IgG HRP Working Solution to each well except the chromogen blank(s). Prepare the working dilution as described in Preparing IgG HRP.
Cover wells with the plate cover and incubate for 30 minutes at room temperature.
Thoroughly aspirate or decant solution from wells and discard the liquid. Wash wells 4 times. Add 100 μl of Stabilized Chromogen to each well. The liquid in the wells will […]
begin to turn blue. […] The
Tap side of plate gently to mix.
Use a curve fitting software to generate […]
for the dilution in step 3.
4.2.6. Caspase-8/9 activation assay
This lysate was diluted in […]

Caspase-9 = Caspase-9 activation assay in HCT-116 cells

Row | IC50 (HCT-116) | IC50 (MCF-7) | IC50 (HCT-116 and MCF-7) | SMILES | viability at 4 days, 50 µM [1] | also measured
1 | 42 ± 4 nM | 54 ± 4 nM | 48 nM | CCCCCNC(=O)NNC(=O)c1n[nH]c2ccc(S(=O)(=O)CC)cc12 [Compound 8a, 2-(5-(Ethylsulfonyl)-1H-indazole-3-carbonyl)-N-pentylhydrazine-1-carboxamide] | 90% | –
2 | 33 ± 3 nM | 40 ± 3 nM | 37 nM | CCCCCCNC(=O)NNC(=O)c1n[nH]c2ccc(S(=O)(=O)CC)cc12 [Compound 8b, 2-(5-(Ethylsulfonyl)-1H-indazole-3-carbonyl)-N-hexylhydrazine-1-carboxamide] | 92% | –
3 | 30 ± 2 nM | 34 ± 2 nM | 32 nM | CCCCCCCNC(=O)NNC(=O)c1n[nH]c2ccc(S(=O)(=O)CC)cc12 [Compound 8c, 2-(5-(Ethylsulfonyl)-1H-indazole-3-carbonyl)-N-heptylhydrazine-1-carboxamide] | 91% | –
4 | 28 ± 1 nM | 31 ± 2 nM | 30 nM | CCCCCCCCNC(=O)NNC(=O)c1n[nH]c2ccc(S(=O)(=O)CC)cc12 [Compound 8d, 2-(5-(Ethylsulfonyl)-1H-indazole-3-carbonyl)-N-octylhydrazine-1-carboxamide] | 90% | –
5 | 31 ± 3 nM | 39 ± 3 nM | 35 nM | CCS(=O)(=O)c1ccc2[nH]nc(C(=O)NNC(=O)NC3CCCCC3)c2c1 [Compound 8e, 2-(5-(Ethylsulfonyl)-1H-indazole-3-carbonyl)-N-(cyclohexyl)hydrazine-1-carboxamide] | 91% | –
6 | 39 ± 3 nM | 50 ± 4 nM | 45 nM | CCS(=O)(=O)c1ccc2[nH]nc(C(=O)NNC(=O)NC3CCC(C)CC3)c2c1 (centres unmarked) [Compound 8f, 2-(5-(Ethylsulfonyl)-1H-indazole-3-carbonyl)-N-(4-methylcyclohexyl)hydrazine-1-carboxamide] | 92% | –
7 | 36 ± 3 nM | 44 ± 4 nM | 40 nM | CCS(=O)(=O)c1ccc2[nH]nc(C(=O)NNC(=O)Nc3ccc(F)cc3)c2c1 [Compound 8i, 2-(5-(Ethylsulfonyl)-1H-indazole-3-carbonyl)-N-(4-fluorophenyl)hydrazine-1-carboxamide] | 91% | –
8 | 31 ± 2 nM | 36 ± 2 nM | 34 nM | CCS(=O)(=O)c1ccc2[nH]nc(C(=O)NNC(=O)NCc3ccccc3)c2c1 [Compound 8j, 2-(5-(Ethylsulfonyl)-1H-indazole-3-carbonyl)-N-(benzyl)hydrazine-1-carboxamide] | 90% | –
9 | 30 ± 2 nM | 32 ± 2 nM | 31 nM | CCS(=O)(=O)c1ccc2[nH]nc(C(=O)NNC(=O)NCc3ccc(OC)cc3)c2c1 [Compound 8k, 2-(5-(Ethylsulfonyl)-1H-indazole-3-carbonyl)-N-(4-methoxybenzyl)hydrazine-1-carboxamide] | 92% | –
10 | 37 ± 3 nM | 46 ± 4 nM | 42 nM | CCS(=O)(=O)c1ccc2[nH]nc(C(=O)NNC(=O)NCCc3ccccc3)c2c1 [Compound 8l, 2-(5-(Ethylsulfonyl)-1H-indazole-3-carbonyl)-N-phenethylhydrazine-1-carboxamide] | 91% | –

The remaining lines, values behind:

Row | SMILES | IC50 (HCT-116) | IC50 (MCF-7) | IC50 (HCT-116 and MCF-7) | viability at 4 days, 50 µM [1] | also measured
11 | CC(=O)Nc1ccc(/C(N)=N/OC(=O)c2ccc3cn[nH]c3c2)cc1 [Compound XIII] | – | – | – | – | IC50 (EGFR): 85 ± 5 nM
12 | C=CC(=O)Nc1cccc(Oc2nc(Nc3n[nH]c4ccccc34)cc(N3CCN(C)CC3)n2)c1 [Compound XII] | – | – | – | – | IC50 (wild-type EGFR): 1700 nM
13 | CN(c1ccc2cn(C)nc2c1)c1ccnc(Nc2ccc(OC(F)(F)F)cc2)n1 [Compound XIV] | – | – | – | – | IC50 (VEGFR-2 kinase): 12 nM
14 | C[C@@H]1C[C@H]2[C@@H]3CCC4=CC(=O)C=C[C@]4(C)[C@@]3(F)[C@@H](O)C[C@]2(C)[C@@]1(O)C(=O)CO [Dexamethasone, reference compound] | – | – | – | – | IL-6 (% inhibition) (IL-6): 93%; IL-6 (% inhibition) (IL-6; listed as dexamethasone): 93.2%; TNF-α (% inhibition) (TNF-α): 83%; TNF-α (% inhibition) (TNF-α; listed as dexamethasone): 82.7%
15 | C#Cc1cccc(Nc2ncnc3cc(OCCOC)c(OCCOC)cc23)c1 [Erlotinib, reference compound] | 30 ± 2 nM | 40 ± 3 nM | 35 nM | – | –
16 | CN[C@@H]1C[C@H]2O[C@@](C)([C@@H]1OC)n1c3ccccc3c3c4c(c5c6ccccc6n2c5c31)C(=O)NC4 [Staurosporine, reference compound] | – | – | – | – | Caspase-3 Conc. (Caspase-3): 465 ± 4 pg/mL; Caspase-9 Conc. (Caspase-9): 20 ± 1 ng/mL
